In test [1] the test system is cisplatin-induced acute kidney injury in mice. The test is described as follows: Cisplatin-induced acute kidney injury in mice: serum indexes and urinary protein. Type of test: in vivo, ICR mice. The conditions noted are these: for Urinary Protein / BUN / CREA / TP: by gavage, 4 days; for Urinary Protein: one hour after the last administration; for BUN / CREA / TP: serum. As for the experimental part: After intraperitoneal injection of cisplatin, cisplatin was toxic to different parts of the kidney. It could cause changes in the function and morphology of glomerulus and renal tubules. Cisplatin could cause renal vasoconstriction, reduce renal blood flow and glomerular filtration rate, and thus cause proteinuria, renal function damage and other symptoms. In this study, B4 was administered by different routes (rectum and oral) to observe the preventive and therapeutic effects of B4 on cisplatin-induced ARF in mice.
2.1.2 Reagent: cisplatin, the original solution 5 mg/kg.
(§1) Dexamethasone solution: 4 tablets of dexamethasone were ground and dissolved in 100 ml double distilled water, and then diluted to 0.03 mg/ml.
B4 raw powder solution: 1000 mg of B4 raw powder was weighed, ground, and dissolved in 100 ml double distilled water to obtain 10 mg/ml solution.
The model was established by cisplatin at a dosage of […]. The normal group was intraperitoneally injected with normal saline, and the other groups were intraperitoneally injected with cisplatin injection.
The animals were randomly divided into blank group; model group; positive drug group (dexamethasone group); B4 gel high, medium, and low dose groups; B4 suppository high, medium, and low dose groups; B4 raw powder group; 10 animals for each group. Animals in B4 gel groups received the gel by rectum at 0.3 ml/100 g body weight; animals in B4 suppository groups received the suppository by rectum; B4 raw powder group and positive group were given corresponding drugs by gavage according to 20 m/kg body weight. The model group and the blank group were given the same volume of double distilled water by gavage. The drug was continuously administered for 4 days from the day of modeling. Animals were fasted for 16-18 hours before administration on day 4.
One hour after the last administration, urine was collected to measure urine proteins. Blood samples were taken from eyeballs to separate serum. Total protein (TP), urea nitrogen (BUN) and creatinine (Cre) were detected by automatic biochemical analysis.

Test [2] has as its system gentamicin-induced acute kidney injury in rats. The test is described as follows: Gentamicin-induced acute kidney injury in rats: serum indexes and urinary protein. The format is in vivo, SD rats. The conditions noted are these: for Urinary Protein, 5th day of administration / Urinary Protein, 6th day of administration / Urinary Protein, 7th day of administration / BUN / CREA / TP: by gavage; for BUN / CREA / TP: serum, 7 days.
Excerpt: Acute renal failure induced by gentamicin was mainly manifested in the increase of creatinine and urea nitrogen, but the mechanism of gentamicin induced nephrotoxicity was still unclear. In this experiment, two kinds of rectal mucosa administration preparations of Pulsatilla chinensis saponin B4 according to the present invention were infused by anus to observe the preventive and therapeutic effects of tested drugs on gentamicin-induced ARF in rats, and compared with oral (gavage) administration of Pulsatilla chinensis saponin B4.
as §1
B4 raw powder solution: 2000 mg of B4 raw powder was weighed, ground, and dissolved in 100 ml double distilled water to obtain 20 mg/ml solution.
Rats in experimental groups were intraperitoneally injected with gentamicin sulfate solution at the dose of 140 mg/kg, while the rats in the blank group were intraperitoneally injected with equal volume of normal saline, and the administration was continued for 7 days to make a model.
The animals were randomly divided into blank group; model group; positive drug group (dexamethasone group); B4 gel high, medium, and low dose groups; B4 suppository high, medium, and low dose groups; B4 powder group; 10 animals for each group. Animals in B4 gel groups received the gel by rectum at 0.3 ml/100 g body weight; animals in B4 suppository groups received the suppository by rectum; B4 raw powder group and positive group were given corresponding drugs by gavage according to 10 ml/kg body weight. The model group and the blank group were given the same volume of double distilled water by gavage. The drug was continuously administered for 7 days from the second day of modeling.
Urine proteins were detected by Coomassie brilliant blue method. After isoflurane anesthesia, blood samples were taken from eyeballs of rats. Serum was separated. Total protein (TP), urea nitrogen (BUN), and creatinine (CRE) were detected by automatic biochemical analysis.

Where [3] appears, read: gel and suppository by rectum, raw powder oral.

Structures are written as SMILES.

`C=C(C)C1CC[C@]2(C(=O)O[C@@H]3O[C@H](CO[C@@H]4O[C@H](CO)[C@@H](O[C@@H]5O[C@@H](C)[C@H](O)[C@@H](O)[C@H]5O)[C@H](O)[C@H]4O)[C@@H](O)[C@H](O)[C@H]3O)CC[C@]3(C)[C@H](CC[C@@H]4[C@@]5(C)CC[C@H](OC6OC[C@H](O)[C@H](O)[C@H]6O[C@@H]6O[C@@H](C)[C@H](O)[C@@H](O)[C@H]6O)[C@@](C)(CO)[C@@H]5CC[C@]43C)[C@@H]12` (stereo partly shown) [B4 raw powder, Pulsatilla chinensis saponin B4]: in test [1] (400 mg/kg), the “Urinary Protein” value is 1.55 mg/mL, the BUN was 55.86 mg/dL, the CREA came out at 38.11 ± 9.56 µmol/L and the TP worked out at 46.12 ± 2.27 g/L. Also, the “effect on renal function, conclusion in words” value in test [1] (setting [3]) is “no significant difference compared with the model group”. Also, in test [2] (200 mg/kg), the “Urinary Protein, 5th day of administration” value was found to be 4.86 ± 1.22 mg/mL; the “Urinary Protein, 6th day of administration” value turned out to be 5.18 ± 1.15 mg/mL; the “Urinary Protein, 7th day of administration” value was found to be 5.38 ± 0.92 mg/mL; the BUN came out at 126.4 mg/dL. In test [2] (200 mg/kg), this compound had a CREA of 268.7 ± 56.2 µmol/L and a TP of 53.2 ± 4.3 g/L. In addition, in test [2] (setting [3]), the “effect on renal function (creatinine and urea nitrogen), conclusion in words” value is reported as “had a tendency to improve the renal function”.
`C[C@@H]1C[C@H]2[C@@H]3CCC4=CC(=O)C=C[C@]4(C)[C@@]3(F)[C@@H](O)C[C@]2(C)[C@@]1(O)C(=O)CO` [Dexamethasone, reference compound]: in test [1] (0.6 mg/kg), the “Urinary Protein” value is 1.00 mg/mL, the BUN came out at 42.97 mg/dL, the CREA amounted to 30.10 µmol/L and the TP is listed as 52.90 g/L. Besides, in test [2] (0.3 mg/kg), the “Urinary Protein, 5th day of administration” value stood at 5.15 ± 0.89 mg/mL; the “Urinary Protein, 6th day of administration” value was determined as 5.52 ± 1.36 mg/mL; the “Urinary Protein, 7th day of administration” value is 5.63 ± 0.58 mg/mL; the BUN turned out to be 79.3 ± 33.6 mg/dL. Further, in test [2] (0.3 mg/kg), the CREA was found to be 83.2 ± 31.9 µmol/L and the TP amounted to 65.7 ± 5.8 g/L.
